Here are results for 60 compounds from the METLIN SMRT retention time set (Domingo-Almenara et al. 2019).

The data set is described as follows: gradient 5% acetonitrile 3 min, to 50% in 2 min, to 85% in 15 min, held 3 min, 100 µL/min. To be noted: column: Zorbax Extend-C18 2.1 x 50 mm; eluents: water / acetonitrile, 0.1% formic acid. In outline:
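Values are retention times taken from adduct peaks that software picked and an analyst inspected. The pure standards were run as mixtures of ~100 molecules on HPLC linked to a quadrupole time-of-flight mass spectrometer, in positive and negative ionization mode. A Zorbax Extend-C18 column (2.1 × 50 mm, 1.8 μm) was used at 100 μL/min with water and acetonitrile, each including 0.1% formic acid.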
For the compound `O=C(Nc1nnc(-c2ccco2)o1)c1c[nH]c2ccccc12`, the RP-LC retention time was found to be 656 s.

The compound `Cc1oc2c(c1C(=O)NC(C)c1ccccc1)C1=NC(C)(C)CN1C=N2` (stereo not given) returned an RP-LC retention time of 653 s.

The compound `Cc1ccsc1C(=O)NCc1ccc2c(c1)ncn2C(C)C` displayed an RP-LC retention time of 616 s.

`NS(=O)(=O)c1cccnc1Nc1cccc(Br)c1` showed an RP-LC retention time of 889 s.

Regarding `CCCn1ccc2sc(C)c(C(=O)NCc3ccc(F)cc3Cl)c2c1=O`, the RP-LC retention time is 1000 s.

`COC(=O)c1ccc(C2CC(=O)NC3=C2C(=O)CCC3)cc1` (stereo not given) had an RP-LC retention time of 653 s.

In turn, `O=C(NC1CCCCC1)c1ccc2ccnc(N3CCN(c4ccccc4F)CC3)c2c1` gave an RP-LC retention time of 908 s.

Turning to `Cc1ccc(F)cc1S(=O)(=O)N1CCC(C2CCNC2)CC1` (stereo not given), the RP-LC retention time stood at 651 s.

Take `NC1N=C(c2ccccc2)c2ccccc2NC1=O` (stereo not given): the RP-LC retention time worked out at 568 s.

Turning to `CCCCC1CCC(C(=O)Nc2nc(-c3ccc4c(c3)NC(=O)CO4)cs2)CC1` (stereo not given), the RP-LC retention time amounted to 934 s.

Compound `O=C1COc2ccccc2N1Cc1nc(-c2ccc3c(c2)ncn3C2CCCC2)no1` came in with an RP-LC retention time of 766 s.

As for `Cc1cnc(C2CCOCC2)n1C1CCCN(Cc2c[nH]c3ccccc23)C1` (stereo not given), the RP-LC retention time was 557 s.

The compound `Cn1c(C2CCN(S(=O)(=O)c3ccc(F)c(Cl)c3)CC2)cc(=O)n2nccc12` gave an RP-LC retention time of 722 s.

In the case of `Cc1sc2cc(C(=O)N(C)C)[nH]c2c1CN1CCCCC1`, the RP-LC retention time is 606 s.

Take `COCCCNS(=O)(=O)c1cc(-c2[nH]ncc2C(=O)N2CCCCC2)oc1C`: the RP-LC retention time was 646 s.

Consider `CCc1ccc(N2CC(c3nc(-c4ccc(OC)c(OC)c4)no3)CC2=O)cc1` (stereo not given), for which the RP-LC retention time was found to be 989 s.

`CCOC(=O)c1c(S(=O)(=O)N2CCC(C(=O)Nc3ccccc3)CC2)c(C)n(C)c1C` came in with an RP-LC retention time of 834 s.

Regarding `COc1cccc(NC(=O)N2CCC(OC3CCN(S(C)(=O)=O)CC3)CC2)c1`, the RP-LC retention time was determined as 731 s.

`CCNC(=O)C1CCCN(c2nc3ncn(CC(=O)Nc4ccc5c(c4)CCC5)c(=O)c3s2)C1` (stereo not given) showed an RP-LC retention time of 717 s.

`COC(=O)c1nc(NC(=O)Cn2nc3c(cc2=O)CCCCC3)sc1C(C)C` gave an RP-LC retention time of 864 s.

`O=C(c1ccc(C(F)(F)F)s1)N1CCN(c2nc(CN3CCCCC3)cs2)CC1` yielded an RP-LC retention time of 703 s.

`CCOc1ccc(-c2noc(CSc3nccn3-c3ccc(C)cc3)n2)cc1OC` gave an RP-LC retention time of 908 s.

Regarding `COCCn1cnc2c(-c3ccccc3)cn(CC(=O)NC3CCCC3)c2c1=O`, the RP-LC retention time turned out to be 837 s.

`CCOC(=O)c1cnc(Nc2nc(-c3ccccc3)c3ccccc3n2)nc1C` came in with an RP-LC retention time of 876 s.

In turn, `O=C(CCc1c(-c2ccc(Br)cc2)nc2ccccn12)NCCc1ccco1` came in with an RP-LC retention time of 678 s.

Take `Cc1ccc(C(=O)N2CC(n3cc(COCC4CC4)nn3)C2)c(=O)[nH]1`: the RP-LC retention time was 595 s.

Consider `O=C(NC1CCCC1)c1nnc(-c2ccc(S(=O)(=O)N3CCOCC3)cc2)o1`, for which the RP-LC retention time was 804 s.

For `CN1C/C=C/CCOc2cccc(c2)-c2ccnc(n2)Nc2cccc(c2)C1`, the RP-LC retention time was determined as 742 s.

Consider `CCN(CC)c1cc(CNC(=O)Nc2cc(OC)ccc2OC)ccn1`, for which the RP-LC retention time stood at 632 s.

`CC1=C(c2ccc(C)cc2)S(=O)(=O)N=C1N1CCCN(C(=O)C(C)(C)C)CC1` returned an RP-LC retention time of 858 s.

Compound `Cc1ccc(CNC(=O)C2CCc3sc(C(=O)N(C)C)cc3C2)cc1` (stereo not given) had an RP-LC retention time of 692 s.

With `COc1ccccc1C(=O)N1CC(Oc2cccc(-c3nc(-c4ccccc4)no3)c2)C1`, the RP-LC retention time worked out at 1130 s.

For `N#Cc1ccc(CN2CC(n3cc(COc4ccc(F)cc4)nn3)C2)cc1`, the RP-LC retention time came out at 678 s.

Turning to `COc1ccc(NC(=O)N2CCCC2c2nc(-c3ccc(F)cc3F)no2)cc1Cl` (stereo not given), the RP-LC retention time was 982 s.

With `CC1(C)C2CCC(CN=C(N)CSS(=O)(=O)O)C1C2` (stereo not given), the RP-LC retention time was 738 s.

Regarding `COc1ccc(-c2nc(N3CCCC(C)C3)c3ccccc3n2)cc1` (stereo not given), the RP-LC retention time came to 836 s.

Compound `CCOc1ccc(NC(=O)c2c(NC(=O)c3ccncc3)sc3c2CCC3)cc1` came in with an RP-LC retention time of 1270 s.

As for `CNc1nc(Nc2ccc(F)cc2)nc2ccccc12`, the RP-LC retention time was found to be 655 s.

In turn, `CC(C)n1ccnc(N2CCOCC2)c1=O` had an RP-LC retention time of 601 s.

As for `CCOc1ccc(C2=NC3(CCN(C(C)C)CC3)NC(c3cccc(OC)c3O)C2)cc1` (stereo not given), the RP-LC retention time worked out at 608 s.

In turn, `COCCN1CCn2cc(S(=O)(=O)Nc3cc(C)cc(C)c3)cc2C1=O` registered an RP-LC retention time of 745 s.

Consider `COc1ccc(-c2cc3nn(CC(=O)Nc4ccc(F)cc4)c(=O)n3c(C)n2)cc1`, for which the RP-LC retention time turned out to be 914 s.

For the compound `Fc1ccccc1N1CCN(Cc2nc(-c3ccc(N4CCSCC4)nc3)no2)CC1`, the RP-LC retention time was 1030 s.

`O=C(Nc1cccc(Br)c1)N1C[C@H]2C[C@H](C1)[C@H]1CCCC(=O)N1C2` displayed an RP-LC retention time of 708 s.

In the case of `Cc1c(C2CCN(C(=O)c3n[nH]c4ccccc34)CC2)noc1N`, the RP-LC retention time turned out to be 643 s.

Regarding `CN(Cc1ccco1)S(=O)(=O)c1ccc(C(=O)Nc2cccc(Cl)c2Cl)cc1`, the RP-LC retention time came to 1010 s.

In the case of `CCn1nc(CNC(=O)c2ccc(F)cc2)c2ccccc21`, the RP-LC retention time is 839 s.

`COc1ccc(-c2nnc(-c3cccc(S(=O)(=O)N4CCCCCC4)c3)o2)cc1` came in with an RP-LC retention time of 1130 s.

On to `COc1ccc(OC)c(NC(=O)N2CCCC2c2nc(-c3ccccc3OC)no2)c1` (stereo not given), for which the RP-LC retention time came out at 906 s.

As for `Cc1ccc(NS(=O)(=O)c2cc3c4c(c2)CCC(=O)N4CCC3)c(C)c1`, the RP-LC retention time came out at 840 s.

For the compound `COc1ccccc1CNC(=O)C1(c2ccc(NC(C)=O)cc2)CCC1`, the RP-LC retention time was 736 s.

`O=C(CSC1CCc2ccccc2NC1=O)Nc1cccc(Br)c1` (stereo not given) gave an RP-LC retention time of 872 s.

`Cc1cc(=O)n(CC(=O)Nc2ccccc2F)c(-c2ccc(F)cc2)n1` returned an RP-LC retention time of 1040 s.

As to `Nc1ccc2c3c(cccc13)C(=O)NC2=O`, the RP-LC retention time worked out at 657 s.

`CC(=O)Nc1ccc(C2(C(=O)N3CCCCC3)CCC2)cc1` came in with an RP-LC retention time of 711 s.

`COc1ccc(-c2ncc3c(n2)CCN(S(=O)(=O)c2cccc(Cl)c2)C3)cc1` registered an RP-LC retention time of 1100 s.

For `Cc1ccc(-c2nc3ncc(C#N)c(N)n3n2)cc1`, the RP-LC retention time came out at 707 s.

The compound `COc1ccc(-c2noc(C3CCCN3C(=O)c3ccnn3C)n2)cc1` (stereo not given) gave an RP-LC retention time of 808 s.

`Cn1cc(-c2cc3n(n2)CCC(=O)N3CC(=O)NCCCN2CCOCC2)c2ccccc21` displayed an RP-LC retention time of 603 s.

The compound `CCOCC(=O)N1CCc2c(c(C(=O)N3CCCC(C(=O)Nc4ccccc4)C3)nn2C)C1` (stereo not given) displayed an RP-LC retention time of 668 s.
